Results taken from ChEMBL document CHEMBL1201862, “PubChem BioAssay data set” (2004).
Calls of active or inactive are those of the source.

Tests used:
[1] = target: Bifunctional protein GlmU (Mycobacterium tuberculosis, UniProt P9WMN3); test: Inhibitors of Mycobacterial Glucosamine-1-phosphate acetyl transferase (GlmU). Secondary screen.; design: species or system Mycobacterium tuberculosis H37Rv
[2] = target: T1, Carboxy-terminal domain RNA polymerase II polypeptide A small phosphatase 1 (Homo sapiens, UniProt Q9GZU7); test: CTDSP1 inhibitors, concentration-response, biochemical, absorbance readout, ultra-high-throughput screen actives (AID 540297); format: functional
T1 sequence (Q9GZU7 whole entry): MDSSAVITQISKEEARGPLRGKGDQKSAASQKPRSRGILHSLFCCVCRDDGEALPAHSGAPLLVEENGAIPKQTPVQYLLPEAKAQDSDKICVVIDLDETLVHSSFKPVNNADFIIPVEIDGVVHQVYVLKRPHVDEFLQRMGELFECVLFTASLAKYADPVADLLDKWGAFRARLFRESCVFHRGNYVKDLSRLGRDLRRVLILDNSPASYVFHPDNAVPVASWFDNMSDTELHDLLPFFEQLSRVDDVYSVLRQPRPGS

[3] = growth inhibition of yeast DHODH-expressing 3D7 parasites – SYBR Green, dry powder samples, dose response (AID 1159570); format: functional, cell-based;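 further: parasite growth measured after 72 hours of compound exposure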
[4] = toxicity to human HepG2 hepatoma cells – cell-based, plate reader, dry powder samples, cytotoxicity control, dose response (AID 1159569); format: functional;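 further: inhibitor potency with signal falling toward the positive control level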
[5] = P. falciparum Dd2 growth inhibitors, dose response, SYBR Green, cherry-picked samples (AID 1159567); format: functional, cell-based
[6] = Dd2 malaria parasite growth inhibition potency – SYBR Green, dry powder samples, dose response (AID 1159566); format: functional, cell-based;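 further: potency for growth inhibition with lower SYBR green DNA signal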
[7] = toxicity to human hepatoma HepG2 cells – cell-based, cherry-picked samples, cytotoxicity control, dose response (AID 1159577); format: functional
[8] = growth inhibition of PfATP4-mutant resistant parasites – NITD609-resistant line, SYBR Green, dry powder, dose response (AID 1159571); format: functional, cell-based;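 further: parasites synchronized at ring stage by sorbitol before testing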
[9] = target: T2, Heat shock factor protein 1 (Mus musculus, UniProt P38532); test: enhancement of HSF1-driven luciferase signal – cell-based, NIH3T3, luminescence, dose retest, confirmation (AID 435004); format: functional;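 further: stress induced by proteasome inhibitor MG132 added 30 min after compound; luciferase reporter driven by HSF1 response element in NIH3T3 cells; actives raise luminescence as potentiators of the MG132 stress response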
T2 sequence (P38532 whole entry): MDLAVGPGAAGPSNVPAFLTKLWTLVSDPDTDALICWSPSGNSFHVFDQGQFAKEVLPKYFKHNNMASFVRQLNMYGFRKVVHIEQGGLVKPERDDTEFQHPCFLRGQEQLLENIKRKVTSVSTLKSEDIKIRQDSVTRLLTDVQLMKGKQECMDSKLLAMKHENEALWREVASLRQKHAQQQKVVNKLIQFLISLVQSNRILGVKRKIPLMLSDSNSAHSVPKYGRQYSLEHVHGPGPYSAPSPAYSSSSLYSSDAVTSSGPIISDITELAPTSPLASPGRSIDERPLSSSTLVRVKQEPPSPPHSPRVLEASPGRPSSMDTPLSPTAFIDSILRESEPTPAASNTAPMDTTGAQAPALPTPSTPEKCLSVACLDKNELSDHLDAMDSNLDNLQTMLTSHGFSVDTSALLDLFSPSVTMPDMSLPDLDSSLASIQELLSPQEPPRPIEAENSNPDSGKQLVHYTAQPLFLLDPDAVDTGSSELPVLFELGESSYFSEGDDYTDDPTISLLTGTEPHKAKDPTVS

[10] = target: T3, Methionyl-tRNA synthetase, putative (Trypanosoma brucei brucei, UniProt Q38C91); format: functional, Trypanosoma brucei brucei strain 927/4 GUTat10.1
T3 sequence (Q38C91 whole entry): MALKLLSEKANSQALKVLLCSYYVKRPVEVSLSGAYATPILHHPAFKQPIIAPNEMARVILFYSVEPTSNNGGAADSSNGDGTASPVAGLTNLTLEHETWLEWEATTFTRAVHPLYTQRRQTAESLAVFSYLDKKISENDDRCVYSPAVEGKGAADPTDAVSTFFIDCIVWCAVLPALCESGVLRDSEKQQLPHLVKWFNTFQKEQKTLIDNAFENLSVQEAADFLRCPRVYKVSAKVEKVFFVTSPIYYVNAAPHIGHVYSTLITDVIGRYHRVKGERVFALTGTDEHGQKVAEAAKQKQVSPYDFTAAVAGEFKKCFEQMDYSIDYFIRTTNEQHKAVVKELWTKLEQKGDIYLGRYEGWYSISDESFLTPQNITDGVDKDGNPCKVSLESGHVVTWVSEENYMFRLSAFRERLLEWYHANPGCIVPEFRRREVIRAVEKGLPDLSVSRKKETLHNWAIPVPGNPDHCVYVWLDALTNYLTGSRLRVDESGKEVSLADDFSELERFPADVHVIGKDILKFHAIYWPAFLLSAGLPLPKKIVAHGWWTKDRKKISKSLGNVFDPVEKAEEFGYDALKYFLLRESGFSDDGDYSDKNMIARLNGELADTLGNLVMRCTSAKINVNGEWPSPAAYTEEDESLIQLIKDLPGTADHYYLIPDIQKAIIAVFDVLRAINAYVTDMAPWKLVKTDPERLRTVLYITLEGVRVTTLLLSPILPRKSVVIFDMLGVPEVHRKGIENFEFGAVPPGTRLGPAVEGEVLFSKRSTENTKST

[11] = Counterscreen for inhibitors of Trypanosoma brucei methionyl tRNA synthetase (MetRS): Luminescence-based cell-based high throughput dose response assay to identify compounds that are cytotoxic to Jurkat human T lymphocyte cells.; format: functional
[12] = target: T3, Methionyl-tRNA synthetase, putative; format: functional, Trypanosoma brucei brucei strain 927/4 GUTat10.1; remark: listed apart in the source
[13] = Late stage counterscreen for inhibitors of Trypanosoma brucei methionyl tRNA synthetase (MetRS): Luminescence-based cell-based high throughput dose response assay to identify compounds that are cytotoxic to Jurkat human T lymphocyte cells.; format: functional
[14] = rise of 2N DNA cells, HeLa – IC50, dose response (AID 1117349); format: functional, cell-based
[15] = CellTiter-Glo luminescence survival assay, SW480 colon tumor line, concentration-response curve, half-maximal inhibitory concentration (AID 1117338); format: functional
[16] = RKO cell viability reduction, dose response, CellTiter-Glo luminescence (AID 1117322); format: functional
[17] = cytotoxicity toward HCT116 cells – cell-based, CellTiter-Glo luminescence, IC50, dose response (AID 1117332); format: functional; settings: HCT-116
[18] = SNU-C1 cell viability reduction, dose response, CellTiter-Glo luminescence (AID 1117323); format: functional, cell-based
[19] = cytotoxicity toward Colo320 cells – cell-based, CellTiter-Glo luminescence, IC50, dose response (AID 1117334); format: functional; settings: COLO 320
[20] = rise of 4N DNA cells, HeLa – IC50, dose response (AID 1117351); format: functional, cell-based
[21] = cytotoxicity toward HT-29 cells – cell-based, CellTiter-Glo luminescence, IC50, dose response (AID 1117330); format: functional
[22] = Reduced DLD-1 viability, concentration-response, CellTiter-Glo luminescence (AID 1117352); format: functional
[23] = HCT116 cell viability decrease, GSK3B pretreatment – CellTiter-Glo, IC50, dose response (AID 1117339); format: functional; settings: HCT-116
[24] = target: 1-phosphatidylinositol 4,5-bisphosphate phosphodiesterase gamma-1 (Homo sapiens, UniProt P19174); test: Counterscreen for inhibitors of phospholipase C isozymes (PLC-B3): Fluorescence-based biochemical high throughput dose response assay to identify inhibitors of phospholipase C isozymes (PLC-gamma1).
Chain of 1-phosphatidylinositol 4,5-bisphosphate phosphodiesterase gamma-1 (P19174 whole entry): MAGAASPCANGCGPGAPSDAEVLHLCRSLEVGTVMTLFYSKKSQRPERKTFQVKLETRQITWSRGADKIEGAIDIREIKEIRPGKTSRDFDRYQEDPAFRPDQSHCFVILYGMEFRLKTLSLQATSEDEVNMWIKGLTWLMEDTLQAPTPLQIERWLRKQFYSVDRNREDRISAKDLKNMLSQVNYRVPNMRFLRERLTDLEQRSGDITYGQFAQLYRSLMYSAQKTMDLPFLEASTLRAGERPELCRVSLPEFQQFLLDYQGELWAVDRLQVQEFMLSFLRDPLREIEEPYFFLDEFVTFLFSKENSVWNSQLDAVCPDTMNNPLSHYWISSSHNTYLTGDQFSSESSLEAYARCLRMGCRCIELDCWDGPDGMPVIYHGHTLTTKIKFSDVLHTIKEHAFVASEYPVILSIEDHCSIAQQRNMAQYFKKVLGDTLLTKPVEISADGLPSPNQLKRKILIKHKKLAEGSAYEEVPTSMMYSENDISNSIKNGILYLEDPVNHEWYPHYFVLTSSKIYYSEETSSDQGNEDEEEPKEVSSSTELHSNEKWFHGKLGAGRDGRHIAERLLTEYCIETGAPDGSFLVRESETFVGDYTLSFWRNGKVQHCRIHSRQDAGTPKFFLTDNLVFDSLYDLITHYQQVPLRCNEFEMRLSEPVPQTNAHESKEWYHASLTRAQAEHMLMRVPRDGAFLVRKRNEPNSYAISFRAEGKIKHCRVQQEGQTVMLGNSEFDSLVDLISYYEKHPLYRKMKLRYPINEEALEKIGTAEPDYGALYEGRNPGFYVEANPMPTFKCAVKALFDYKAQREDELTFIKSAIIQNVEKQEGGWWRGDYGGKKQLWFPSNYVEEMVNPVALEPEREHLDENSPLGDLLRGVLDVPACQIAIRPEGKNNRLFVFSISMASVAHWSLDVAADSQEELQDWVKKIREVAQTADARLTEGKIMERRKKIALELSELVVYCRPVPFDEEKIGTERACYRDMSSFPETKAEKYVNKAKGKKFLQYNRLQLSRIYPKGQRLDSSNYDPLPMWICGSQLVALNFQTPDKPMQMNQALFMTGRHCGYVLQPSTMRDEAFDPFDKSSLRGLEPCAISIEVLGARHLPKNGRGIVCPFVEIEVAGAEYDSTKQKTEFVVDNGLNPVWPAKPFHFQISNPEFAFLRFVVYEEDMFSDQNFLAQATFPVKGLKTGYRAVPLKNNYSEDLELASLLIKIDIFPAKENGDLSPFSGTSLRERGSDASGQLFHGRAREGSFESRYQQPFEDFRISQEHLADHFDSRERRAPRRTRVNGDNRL

[25] = target: 1-phosphatidylinositol 4,5-bisphosphate phosphodiesterase beta-3 (Homo sapiens, UniProt Q01970); test: Fluorescence-based biochemical high throughput dose response assay to identify inhibitors of phospholipase C isozymes (PLC-B3).
Chain of 1-phosphatidylinositol 4,5-bisphosphate phosphodiesterase beta-3 (Q01970 whole entry): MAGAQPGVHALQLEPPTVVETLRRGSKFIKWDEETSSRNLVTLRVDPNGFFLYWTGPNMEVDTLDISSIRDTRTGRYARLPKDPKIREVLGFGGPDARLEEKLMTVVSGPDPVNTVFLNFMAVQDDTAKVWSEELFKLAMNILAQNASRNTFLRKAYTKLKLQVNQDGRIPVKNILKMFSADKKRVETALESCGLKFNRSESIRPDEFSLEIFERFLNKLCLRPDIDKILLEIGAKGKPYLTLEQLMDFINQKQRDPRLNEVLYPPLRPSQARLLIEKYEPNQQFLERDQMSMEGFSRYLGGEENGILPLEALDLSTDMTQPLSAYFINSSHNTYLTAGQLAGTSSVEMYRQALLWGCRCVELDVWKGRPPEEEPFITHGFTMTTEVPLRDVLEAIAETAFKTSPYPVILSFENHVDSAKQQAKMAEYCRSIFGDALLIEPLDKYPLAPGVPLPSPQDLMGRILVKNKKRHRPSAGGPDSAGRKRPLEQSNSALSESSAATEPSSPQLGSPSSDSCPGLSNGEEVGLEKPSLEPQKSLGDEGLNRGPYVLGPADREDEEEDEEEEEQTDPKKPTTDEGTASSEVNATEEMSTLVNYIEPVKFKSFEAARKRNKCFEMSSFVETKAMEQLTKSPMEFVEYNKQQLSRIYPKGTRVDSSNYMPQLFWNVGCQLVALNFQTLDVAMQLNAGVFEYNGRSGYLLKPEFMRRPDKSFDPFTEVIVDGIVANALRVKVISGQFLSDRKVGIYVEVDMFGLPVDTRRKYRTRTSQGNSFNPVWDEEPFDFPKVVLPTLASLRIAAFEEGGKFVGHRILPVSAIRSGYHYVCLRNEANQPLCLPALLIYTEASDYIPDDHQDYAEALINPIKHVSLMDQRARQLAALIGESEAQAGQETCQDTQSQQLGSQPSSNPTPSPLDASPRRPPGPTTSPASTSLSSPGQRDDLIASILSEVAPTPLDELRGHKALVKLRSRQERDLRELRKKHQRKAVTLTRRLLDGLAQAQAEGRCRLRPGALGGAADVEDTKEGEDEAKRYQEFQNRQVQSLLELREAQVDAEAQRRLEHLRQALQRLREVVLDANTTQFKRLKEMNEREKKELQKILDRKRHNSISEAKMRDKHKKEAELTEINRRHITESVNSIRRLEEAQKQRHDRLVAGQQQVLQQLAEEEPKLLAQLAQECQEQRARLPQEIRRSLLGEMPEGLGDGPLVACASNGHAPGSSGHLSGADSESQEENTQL

[26] = reduced cellular PGC1a acetyl-lysine signal – cell-based, cherry-picked samples, dose response (AID 720514); format: functional;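 further: potency may reflect raised or lowered acetylation signal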

Chain of Bifunctional protein GlmU (P9WMN3 whole entry, the tested form may be a part): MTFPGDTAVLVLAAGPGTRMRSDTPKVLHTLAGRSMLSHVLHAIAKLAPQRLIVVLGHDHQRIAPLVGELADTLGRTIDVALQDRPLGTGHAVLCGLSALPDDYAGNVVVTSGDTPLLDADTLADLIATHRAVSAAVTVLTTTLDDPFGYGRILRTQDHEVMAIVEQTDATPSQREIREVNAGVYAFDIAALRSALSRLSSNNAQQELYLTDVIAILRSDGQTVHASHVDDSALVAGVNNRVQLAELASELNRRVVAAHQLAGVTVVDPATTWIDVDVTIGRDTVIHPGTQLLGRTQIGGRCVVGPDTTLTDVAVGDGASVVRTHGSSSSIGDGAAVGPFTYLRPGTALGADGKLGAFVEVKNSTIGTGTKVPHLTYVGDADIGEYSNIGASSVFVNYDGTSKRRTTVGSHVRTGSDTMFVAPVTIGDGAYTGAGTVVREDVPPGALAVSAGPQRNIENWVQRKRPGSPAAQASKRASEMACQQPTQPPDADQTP

CC1C=CC(C)C(C(=O)O)C1C(=O)O (configuration not stated)
active: IC50 [1] 144 µM | IC50 [2] 4.36 µM

O=C(c1ccc2c(c1)OCO2)N1CC(=O)N2[C@H](CO)[C@H](c3ccc(C#Cc4ccccc4)cc3)[C@H]2C1
active: AC50 [3] 5.73 µM | AC50 [4] 25 µM | AC50 [5] 2.52 µM | AC50 [6] 1.68 µM | AC50 [7] 26.3 µM | AC50 [8] 1.93 µM

O=C(NCCc1nc2ccccc2[nH]1)c1ccc(Cl)c([N+](=O)[O-])c1
active: IC50 [10] 0.221 µM | IC50 [12] 0.17 µM
inactive: EC50 [9] > 260 µM | IC50 [11] 44.4 µM | IC50 [13] > 83.3 µM

COc1ccccc1CN1C[C@@H]2N[C@H](C1)[C@@H]2c1ccc(-c2ccccc2OC)cc1
active: AC50 [5] 4.29 µM | AC50 [7] 11.6 µM

C[C@@H]1CN([C@@H](C)CO)C(=O)c2cccc(NC(=O)c3nc4ccccc4s3)c2O[C@@H]1CN(C)C(=O)Nc1cccc2ccccc12
active: AC50 [3] 2.73 µM | AC50 [4] 71.7 µM | AC50 [5] 2.98 µM | AC50 [6] 2.51 µM | AC50 [8] 2 µM

CN1CCC(Nc2ncc3ncnc(Nc4ccc(F)c(Cl)c4)c3n2)CC1
inactive: IC50 [14] > 10 µM | IC50 [17] > 20 µM | IC50 [18] 12 µM | IC50 [19] 11.7 µM | IC50 [20] > 10 µM
active: IC50 [15] 2.35 µM | IC50 [16] 3.17 µM | IC50 [21] 4 µM | IC50 [22] 2.29 µM | IC50 [23] 3.38 µM

CC(C)(C)c1cc(C(=O)NNC(=O)Nc2ccccc2)n(Cc2ccccc2)n1
inactive: IC50 [24] > 122 µM | IC50 [25] > 122 µM

Brc1c[nH]c2nc(SCc3nc4ccccc4[nH]3)nc-2c1
inactive: IC50 [11] 83.3 µM | IC50 [13] > 83.3 µM
active: IC50 [10] 7.89 µM | IC50 [12] 4.23 µM

Cc1nc(O)c(C(=O)/C=C/c2ccccc2)c2c1CCCC2
active: AC50 [26] 8.12 µM
